# According to paper PMC11385693, “Synthesis of ferrocenyl benzimidazole derivatives as novel anti-Toxoplasma gondii agents” (New Journal of Chemistry, 2024):
# “And” between values parts separate entries of the source, which are not always exact repeats. Equal entries are not always repeated. Where two headings read alike, the source gives them in different places.
# Columns and labels:
# [1] = tested on: RhΔKu80:mNeonGreen strain of T. gondii; experiment: microbe, parasite or virus in culture; assay type: cell-based, Toxoplasma gondii
# Protocol: Growth inhibition assays were carried out using the RhΔKu80:mNeonGreen strain of T. gondii, which expresses the mNeonGreen fluorescent protein.[56] Parasite growth inhibition was determined by measuring the fluorescence emission of parasite growth in increasing concentrations of compounds of interest.
# T. gondii ΔKu80:mNeon tachyzoites were grown in human foreskin fibroblasts (HFFs) with Dulbecco's modified Eagle's medium (DMEM) supplemented with 3% heat inactivated foetal bovine serum (D3) as the culturing medium. Cells and parasites were maintained at 37 °C and 5% carbon dioxide (CO2).
# EC50s were calculated as previously described.[56] Briefly, T. gondii ΔKu80:mNeon parasites were counted by haemocytometer and diluted to 25 000 parasites per mL in 40 mL of D3 media, to give an infection of 5000 parasites per well. The media from a black clear bottomed 96 well plate containing HFFs was then aspirated. 200 μL of uninfected D3 media was added to the top and bottom rows of wells (A and H) to serve as blanks. 200 μL of T. gondii containing D3 media was then added to the remaining wells. The parasites were allowed 2 hours to invade host cells, after which test compounds were added.
# The media from the infected 96 well plates was then aspirated and 100 μL of D3 media added to each well, excluding column 12. The first 4 wells of column 12 were filled with 300 μL of drug supplemented D3 media, while the next 4 wells were filled with 300 μL of D3 media supplemented with a different drug. The drug supplemented D3 media was then serially diluted 1 : 3 across the plate, stopping at column 2 and disposing of the media, leaving all wells with 100 μL of media. Finally, the plates were closed and incubated at 37 °C with 5% CO2 for 4 days. After 4 days the fluorescence of each well on the plates was read at 594 nm emission using a PHERAstar FS microplate reader. Graphpad Prism 9 software was used to plot dose–response and determine inhibition of parasite growth.
# [2] = Turbidimetric solubility assay; details: for solubility at 2 h: kinetic from dmso stock
# Protocol: A single phosphate buffered saline (PBS) tablet (Sigma Aldrich) was dissolved in 200 mL of distilled water (dH2O) (25 °C) to obtain a PBS solution with 0.01 M phosphate buffer, 0.14 M NaCl and 0.003 M KCl.
# Stock solutions of the compounds to be tested were prepared in DMSO at a concentration of 10 mM and filtered through syringe filters. Serial dilution of the stock solutions with DMSO was then carried out in a preparatory (prep) 96-well plate giving concentrations between 0.00 and 10.0 mM (0.00, 0.25, 0.50, 1.0, 2.0, 4.0, 8.0 and 10 mM). The solutions were then further diluted into 96-well assay plates containing DMSO, PBS or HEPES buffer by pipetting 4.00 μL of solution from the prep plate to the Assay plate containing 196 μL of DMSO or buffer, giving final concentrations between 0.00 and 200 μM (0.00, 5.00, 10.0, 20.0, 40.0, 80.0, 160 and 200 μM). The assay plates were incubated at 25.0 or 37.0 °C for two hours before their UV-vis absorbance was read at 620 nm with a SPECTROstar Nano microplate reader spectrophotometer. Blank readings were used to gain corrected readings by subtracting them from obtained absorbances for each compound concentration.
# T. gondii parasites = experiment: Determination of ROS formation by FACS (CellROX deep red); assay type: cell-based, Toxoplasma gondii; details: 66 μM, 18 hours, compared with untreated parasites
# Protocol: Once it had been established that two of the synthesised ferrocenyl benzimidazole derivatives were biologically active, their potential mode of action was explored. Given the presence of the ferrocenyl moiety, and the cyclic voltammetry results, it was of interest to investigate whether the compounds induce ROS, which may provide an explanation for their anti-parasitic activity. Thus, cells heavily infected with parasites were incubated with target compounds for 18 hours, before isolating the parasites and staining them with CellRox deep red reagent. CellRox is an oxidation sensitive dye which is non-fluorescent in its reduced state but fluoresces bright red at 665 nm upon being oxidised by ROS. FACS was then used to quantify CellROX parasite florescence.[56] Parasites were incubated with ferrocene carboxylic acid (FcCOOH), and untreated parasites were used as controls.
# 6 cm dishes of host cells heavily infected with T. gondii were untreated or treated with 66 μM (second highest concentration used in growth inhibition assays) of test compounds for 18 hours. The dishes were then scratched and syringed, before filtering the solution into 10 mL falcon tubes to remove cell debris. The tubes were spun down for 10 minutes at 1500 rpm. The media was then removed from the tubes, and the pellet resuspended in 200 μL of PBS buffer. For each drug, 100 μL of the resuspended pellet was then placed into 2 FACS tubes, one which would then be stained with CellROX dye, and the other 100 μL of PBS added to act as an unstained control. A 1 : 125 dilution of CellROX stock solution was performed, and 100 μL of this solution added to the FACS tubes needing staining. Stained tubes were incubated at 37 °C for at least 15 min before analysis on a BD Celesta flow cytometer. Data was obtained using FACSDiva software with parasites being gated on forward scatter, side scatter and green fluorescence. FlowJo v10 software was used to plot the geometric mean of CellRox fluorescence from at least 5000 parasites on the Cy7 channel.
# Cyclic voltammetry = assay type: physicochemical
# Description: Ferrocene is known to undergo reversible oxidation and reduction, cycling between its 3^+ ferrocenium and the 2^+ ferrocene (Fc) states.[49,50] This redox behaviour leads to the generation of reactive oxygen species (ROS) through Fenton like reactions, which can in turn lead to parasite death.[51–53] Cyclic voltammetry was used to determine if the synthesised ferrocenyl derivatives had the potential to have an impact on the redox status of the parasite cells. Two different scan rates (25 and 90 mV s^−1) were used to ensure the reliability of the results, compared to ferrocene alone.
# [3] = Aqueous stability studies (UV-vis monitoring, ESI-MS follow-up); assay type: physicochemical; details: for Change of UV-vis spectrum over time (aqueous stability): PBS pH 7.4, HEPES pH 7.0 and acetate buffer pH 4.6, 37 °C, 18 hours, 50 μM
# Protocol: The stability of complexes 14–17 in an aqueous environment was investigated. The stability experiments were performed in PBS (pH 7.4) and HEPES (pH 7.0) buffers, as well as in acidic acetate buffer (pH 4.6), by monitoring the UV-vis spectra of the compounds at 37 °C over an 18-hour period.
# To further investigate the stability of 14, the PBS, HEPES and acetate buffer solutions were evaporated to dryness, and then analysed using electrospray ionisation mass spectrometry in the positive ionisation mode.
# PBS and HEPES buffers were prepared as described above. An acetate buffer with a concentration of […] and a pH of 4.60 was prepared by dissolving 5.40 g (65.83 mmol) of sodium acetate in 50 mL of dH2O. The resulting solution was then titrated to a pH of 4.60 with glacial acetic acid and made up to 100 mL with dH2O.
# 1 mM stock solutions of the synthesised target compounds in MeOH were prepared. 1.90 mL of buffer (PBS, HEPES or acetate buffer) was pipetted into cuvettes followed by the addition 100 μL of test compound stock solutions, diluting them to a final concentration of 50 μM. The cuvettes were then stoppered, inverted to mix the solution, and placed in an Agilent Cary 3500 UV-vis spectrophotometer as fast as possible. Blank solutions in matched cuvettes were also prepared by adding 100 μL of MeOH to 1.9 mL of buffer. The solutions in all the cuvettes were stirred at 400 rpm ensure proper mixing. UV spectra were then recoded every 5 minutes for 18 hours with a spectral width of 200–1100 nm to monitor the stability of the test compounds.
# HEK293T cell line = details: 25 μM, MTT 48 hours
# Protocol: Human prostatic epithelial cells (PNT1A) were cultured in Rosewell Park Memorial Institute (RPMI) media supplemented with 10% heat inactivated FBS. Both cell lines were incubated at 37 °C with 5% CO2. Both cell lines were obtained from ATCC.
# The cells were allowed to recover overnight before the addition of compounds.
# Stock solutions of the test compounds in DMSO were prepared and serially diluted in DMSO in a 96 well plate. […] 10 μL of the test compounds in media was then pipetted into the plates containing cells in triplicate. The cells were then incubated with the test compounds for 48 hours. After incubation, 10 μL of previously prepared MTT reagent was added to each well followed by incubation of the plates for 4 hours. 100 μL of solubilising agent was then pipetted into each well, and the plates incubated overnight. After overnight incubation the plates were read using a BioTek SYNERGY HTX multimode plate reader at 595 nm. Graphpad Prism 9 software was used to plot dose–response and determine cell viability.
# [4] = T. gondii ΔKu80:mNeon in HFFs, 4 days, highest concentration 100 μM, NA = not active at the maximum tested concentration, three biological replicates in triplicate
# [5] = T. gondii ΔKu80:mNeon in HFFs, 4 days, highest concentration 100 μM, NA = not active at the maximum tested concentration, three biological replicates in triplicate, read-out: EC50
Compound,ROS formation in treated parasites (CellRox red fluorescence) (T. gondii parasites),"E 1/2 (Cyclic voltammetry; Run1, scan rate 25 mV s^−1)","ΔEp (Cyclic voltammetry; Run1, scan rate 25 mV s^−1)","E 1/2 (Cyclic voltammetry; Run2, scan rate 90 mV s^−1)","ΔEp (Cyclic voltammetry; Run2, scan rate 90 mV s^−1)","Solubility range ([2]; HEPES (pH 7.0), 25 °C)","Solubility class ([2]; HEPES (pH 7.0), 37 °C)","Solubility range ([2]; HEPES (pH 7.0), 37 °C)","Solubility range ([2]; PBS (pH7.4), 25 °C)","Solubility range ([2]; PBS (pH7.4), 37 °C)",Change of UV-vis spectrum over time (aqueous stability) [3],further results
Nc1ccc(S(=O)(=O)Nc2ncccn2)cc1 [Sulfadiazine],–,–,–,–,–,–,–,–,–,–,–,"EC50 ([1]; Toxoplasma gondii, 96 h): 2.56 µM"
"COC(=O)[C@H]1[C@H]2C[C@@H]3c4[nH]c5cc(OC)ccc5c4CCN3C[C@H]2C[C@@H](OC(=O)c2cc(OC)c(OC)c(OC)c2)[C@@H]1OC [Reserpine, reference compound]",–,–,–,–,–,–,–,–,–,–,–,"solubility at 2 h ([2]; HEPES buffer, 25 °C, pH 7, aqueous buffer): < 5 µM and < 3 µg/mL; solubility at 2 h ([2]; HEPES buffer, 37 °C, pH 7, aqueous buffer): < 5 µM and < 3 µg/mL; solubility at 2 h ([2]; PBS buffer, 25 °C, pH 7.4, aqueous buffer): < 5 µM and < 3 µg/mL; solubility at 2 h ([2]; PBS buffer, 37 °C, pH 7.4, aqueous buffer): < 5 µM and < 3 µg/mL"
"O=C(O)[c-]1cccc1.[Fe+2].c1cc[cH-]c1 [FcCOOH, ferrocene carboxylic acid, reference compound]",only showed slightly more ROS present than untreated parasites,688 mV,89 mV,689 mV,71 mV,–,–,–,–,–,–,"EC50 [1, 4]: no activity"
O=C(NCCn1c(-c2ccccc2)nc2ccccc21)[c-]1cccc1.[Fe+2].c1cc[cH-]c1 [Compound 14],–,638 mV,89 mV,641 mV,75 mV,20-40 µM and 9-18 µg/mL,poor (solubility <10 μg mL^−1 are considered to have poor solubility),5-10 µM and 2–4 µg/mL,10-20 µM and 4-9 µg/mL,10-20 µM and 4-9 µg/mL,showed reduced intensity over time,"Stability in buffer by ESI-MS of evaporated buffer solutions ([3]; PBS, HEPES and acetate buffer, molecular ion peak present): remained intact and was stable"
"[Fe+2].c1cc[cH-]c1.c1cc[cH-]c1 [Fc, ferrocene, reference compound]",–,451 mV,108 mV,453 mV,83 mV,–,–,–,–,–,–,–
O=C(Cl)[c-]1cccc1.[Fe+2].c1cc[cH-]c1 [FcCOCl],–,–,–,–,–,–,–,–,–,–,–,"EC50 [1, 4]: no activity"
O=C(NCCn1cnc2ncccc21)[c-]1cccc1.[Fe+2].c1cc[cH-]c1 [Compound 16],not,632 mV,99 mV,642 mV,69 mV,20-40 µM and 7-15 µg/mL,poor (solubility <10 μg mL^−1 are considered to have poor solubility),10-20 µM and 4–7 µg/mL,10-20 µM and 4-7 µg/mL,10-20 µM and 4-7 µg/mL,remained unchanged,–
O=C(NCCn1cnc2ccccc21)[c-]1cccc1.[Fe+2].c1cc[cH-]c1 [Compound 15],triggered the formation of ROS,653 mV,105 mV,643 mV,78 mV,10-20 µM and 4-7 µg/mL,moderate (a solubility of 10–60 μg mL^−1 is considered moderate),20-40 µM and 7–15 µg/mL,10-20 µM and 4-7 µg/mL,10-20 µM and 4-7 µg/mL,remained unchanged,"EC50 [1, 5]: 17.9 µM; Cell survival / % cell viability (HEK293T cell line): 50%"
CCc1nc(N)nc(N)c1-c1ccc(Cl)cc1 [Pyrimethamine],–,–,–,–,–,–,–,–,–,–,–,"EC50 [1, 5]: 13.8 µM; EC50 ([1]; Toxoplasma gondii, 96 h, T. gondii ΔKu80:mNeon in HFFs, 4 days, highest concentration 100 μM, NA = not active at the maximum tested concentration, three biological replicates in triplicate, read-out: EC50): 13.8 µM"
